“Also recorded” adds a separate entry of the source. Non-standard residues stand in square brackets, D forms with d. Residues, ends and D or L forms follow the SMILES beside them. No end group written: not given here. *: point of attachment. pGlu = O=C1CC[C@@H](C(=O)O)N1; Cbz = O=C(OCc1ccccc1)*
Legend:
[1] = literature, Life Sci., 19, 1331-1340; cited from earlier work
[2] = system: morphine-dependent mice; test: Naloxone-precipitated withdrawal: body temperature and withdrawal signs; type: in vivo; settings: for Withdrawal, % of control (jumping, shakes, diarrhea) / Δt, °C. (difference in body temperature just prior to naloxone and 30 min. thereafter): Table II, peptide 50 μg per mouse, naloxone 0.1 mg/kg; for Δt, °C. (difference in body temperature just prior to naloxone and 30 min. thereafter): mean ± SD; for Withdrawal, % of control / Δt, °C. / lowest dose still effective in blocking physical dependence on morphine: Table III; for Withdrawal, % of control / Δt, °C.: dose 50 μg; for lowest dose still effective in blocking physical dependence on morphine: dose-response experiments; for ability to block development of physical dependence on morphine: naloxone-precipitated withdrawal, Tables II and III
Method: The mice were randomly divided into two groups. One received SC injections of water (vehicle) while the other received the peptide under investigation (50 μg/mouse on day one). Two hours later the mice were further subdivided and each subgroup was implanted with placebo or morphine pellets. The injections of vehicle and peptide were repeated 24 and 48 hours after the first injection in their respective groups. Morphine pellets containing 75 mg of morphine free base were implanted subcutaneously (SC) between 10-11 A.M. and were removed 3 days later at the same time. The control animals were implanted with placebo pellets. Body temperature and weight were measured daily at 11 A.M. Temperature was measured using a lubricated rectal probe inserted 2.5 cm into the rectum and measured with a telethermometer (Model 43TA Yellow Springs Instrument Co., Yellow Springs, Ohio).
To determine the effects of peptide treatment on the development of physical dependence, the abstinence syndrome was precipitated using the morphine antagonist naloxone (Endo Laboratories Inc., N.Y.) at the appropriate dose (0.1, 0.25, or 0.50 mg/kg) injected intraperitoneally (IP) one hour following removal of morphine and placebo pellets. Pellet removal was performed 24 hours after the last peptide injection. These mice were monitored for changes in body temperature (see above) and body weight at 15 min. intervals for one hour after the naloxone injection. Effects of removing the pellets (withdrawing morphine) were also assessed by utilizing body temperature and weight as physical dependence parameters; however, these measurements were made at 2 hour intervals for 10 hours after the removal of the pellets. Placebo implanted mice were treated in the same manner as the morphine pellet implanted mice.

[3] = system: morphine-dependent mice; test: as above; type: in vivo; settings: Table III

| Compound | Withdrawal, % of control (jumping, shakes, diarrhea) [2] [%] | Δt, °C. (difference in body temperature just prior to naloxone and 30 min. thereafter) [2] | also measured |
| --- | --- | --- | --- |
| 8-arginine vasotocin | – | – | relative potency in facilitating development of physical dependence on and tolerance to morphine [1]: more effective than 8-arginine vasopressin |
| CC(C)C[C@@H]1NC(=O)[C@H](C)NC1=O [Cyclo(Leu--Ala)] | 100 | -1.80 ± 0.96 °C | – |
| CC(C)C[C@@H]1NC(=O)CNC1=O [Cyclo(Leu--Gly), cyclo(leucyl-glycine)] | 21 | -0.02 ± 0.83 °C | Withdrawal, % of control [2]: 18%; Δt, °C. [2]: -0.19 ± 0.58 °C; lowest dose still effective in blocking physical dependence on morphine [2]: ≤ 0.05 μg per mouse; ability to block development of physical dependence on morphine [2]: showed significant activity; also recorded: most potent peptides tested; Withdrawal, % of control ([3]; dose 0.05 μg): 20%; Δt, °C. ([3]; dose 0.05 μg): +0.27 ± 0.70 °C; Withdrawal, % of control ([3]; dose 0.5 μg): 0%; Δt, °C. ([3]; dose 0.5 μg): +0.30 ± 0.29 °C; Withdrawal, % of control ([3]; dose 5 μg): 0%; Δt, °C. ([3]; dose 5 μg): +0.47 ± 0.32 °C; relative potency in facilitating development of physical dependence on and tolerance to morphine [1]: as effective as oxytocin |
| CC(C)C[C@H]1NC(=O)[C@@H]2CCCN2C1=O [Cyclo(Pro--D-Leu)] | 40 | -0.24 ± 1.06 °C | – |
| O=C1N[C@@H](Cc2ccccc2)C(=O)N2CCC[C@@H]12 [Cyclo(Pro--Phe)] | 20 | -0.13 ± 0.55 °C | ability to block development of physical dependence on morphine [2]: showed significant activity |
| CC(C)C[C@H](NC(=O)[C@@H]1CCCN1C(=O)CNC(=O)OCc1ccccc1)C(=O)NCC(=O)O [Z-Gly--Pro--Leu--Gly--COOH] (Cbz-GPLG-OH) | 22 | -0.07 ± 0.72 °C | – |
| CC(C)C[C@H](NC(=O)OCc1ccccc1)C(=O)NCC(N)=O [Z-Leu--Gly--NH2] (Cbz-Leu-Gly-NH2) | 70 | -0.75 ± 0.72 °C | – |
| CC(C)C[C@H](NC(=O)[C@@H]1CCCN1C(=O)OCc1ccccc1)C(=O)NCC(=O)O [Z-Pro--Leu--Gly--COOH] (Cbz-Pro-Leu-Gly-OH) | 100 | -1.20 ± 0.39 °C | – |
| CC(C)C[C@H](NC(=O)[C@@H]1CCCN1C(=O)OCc1ccccc1)C(N)=O [Z-Pro--Leu--NH2] (Cbz-Pro-Leu-NH2) | 100 | -0.95 ± 0.21 °C | – |
| CC(C)C[C@H](NC(=O)[C@@H]1CCC(=O)N1)C(=O)NCC(N)=O [[Glu--Leu--Gly--NH2] ([pGlu]-Leu-Gly-NH2) | 44 | -0.27 ± 0.72 °C | – |
| CC[C@H](C)[C@@H]1NC(=O)[C@H](Cc2ccc(O)cc2)NC(=O)[C@@H](N)CSSC[C@@H](C(=O)N2CCC[C@H]2C(=O)N[C@@H](CC(C)C)C(=O)NCC(N)=O)NC(=O)[C@H](CC(N)=O)NC(=O)[C@H](CCC(N)=O)NC1=O [oxytocin] | – | – | relative potency in facilitating development of physical dependence on and tolerance to morphine [1]: more effective than 8-arginine vasopressin |
| Cbz-Ala-Pro | 100 | -1.20 ± 0.21 °C | – |
| Cbz-Pro-Ala | 63 | -0.74 ± 0.94 °C | – |
| Cbz-Pro-Gln | 0 | +0.08 ± 0.33 °C | – |
| Cbz-Pro-Glu | 45 | -0.63 ± 0.88 °C | – |
| Cbz-Pro-Gly | 69 | -0.79 ± 0.78 °C | – |
| Cbz-Pro-Ile | 78 | -1.19 ± 0.91 °C | – |
| Cbz-Pro-Leu | 22 | +0.08 ± 0.93 °C | Withdrawal, % of control [2]: 18%; Δt, °C. [2]: +0.08 ± 0.93 °C; lowest dose still effective in blocking physical dependence on morphine [2]: 5 μg per mouse; ability to block development of physical dependence on morphine [2]: exhibited activity; Withdrawal, % of control ([3]; dose 0.5 μg): 100%; Δt, °C. ([3]; dose 0.5 μg): -1.17 ± 0.17 °C; Withdrawal, % of control ([3]; dose 5 μg): 0%; Δt, °C. ([3]; dose 5 μg): +0.33 ± 0.26 °C |
| Cbz-Pro-Met | 0 | +0.17 ± 0.23 °C | – |
| Cbz-Pro-Phe | 89 | -1.03 ± 0.55 °C | Withdrawal, % of control [2]: 99%; Δt, °C. [2]: -1.03 ± 0.55 °C; Withdrawal, % of control ([3]; dose 0.05 μg): 100%; Δt, °C. ([3]; dose 0.05 μg): -1.60 ± 0.69 °C; Withdrawal, % of control ([3]; dose 0.5 μg): 100%; Δt, °C. ([3]; dose 0.5 μg): -0.69 ± 0.22 °C; Withdrawal, % of control ([3]; dose 5 μg): 100%; Δt, °C. ([3]; dose 5 μg): -0.69 ± 0.24 °C |
| Cbz-Pro-Ser | 39 | -0.29 ± 0.73 °C | – |
| Cbz-Pro-Tyr | 0 | +0.13 ± 0.31 °C | – |
| Cbz-Pro-Val | 63 | -0.44 ± 0.48 °C | – |
| Cbz-[dP]-Leu | 14 | +0.17 ± 0.71 °C | ability to block development of physical dependence on morphine [2]: exhibited activity |
| Z-D-Pro--D-Leu | 0 | +0.10 ± 0.56 °C | ability to block development of physical dependence on morphine [2]: exhibited activity |
| Z-Pro--D-Ala--DCHA | 50 | -0.55 ± 0.90 °C | – |
| Z-Pro--Leu--Gly--N(CH3)2 | 100 | -0.47 ± 0.15 °C | – |
| Z-Pro--ΔPhe | 22 | -0.36 ± 0.58 °C | – |
